# Measured values from publication PMC3761967 (Bioorganic & medicinal chemistry, 2012).
# Where no end group is shown, it is not given here. The star is where a group is joined. Dansyl = CN(C)c1cccc2c(S(=O)(=O)*)cccc12
# Columns and labels:
# recombinant human FTase = details: cited from earlier work
# wild FTase = details: peptide substrate; cited from earlier work
# [1] = test system: Ras processing in ras-transformed NIH3T3; details: cited from earlier work
# [2] = test system: PBP1b (penicillin-binding protein 1b); details: cited from earlier work
# Ha-Ras = details: murine ischemic stroke model; cited from earlier work
# rubber transferase = rubber transferase from Hevea Brasiliensis; cited from earlier work
# tobacco BY-2 cells = details: cited from earlier work
# Ras/ERK1/2 pathway = details: rats; cited from earlier work
# [3] = test system: membrane-bound Ha-Ras / Ki-Ras; details: cited from earlier work
# yeast FTase = target: T1, yeast FTase (Saccharomyces cerevisiae, UniProt P22007+P29703); test: Yeast FTase continuous fluorescence assay; assay type: biochemical; details: yeast FTase IC50, 27 vs 2
# T1 sequence (P29703 1-316): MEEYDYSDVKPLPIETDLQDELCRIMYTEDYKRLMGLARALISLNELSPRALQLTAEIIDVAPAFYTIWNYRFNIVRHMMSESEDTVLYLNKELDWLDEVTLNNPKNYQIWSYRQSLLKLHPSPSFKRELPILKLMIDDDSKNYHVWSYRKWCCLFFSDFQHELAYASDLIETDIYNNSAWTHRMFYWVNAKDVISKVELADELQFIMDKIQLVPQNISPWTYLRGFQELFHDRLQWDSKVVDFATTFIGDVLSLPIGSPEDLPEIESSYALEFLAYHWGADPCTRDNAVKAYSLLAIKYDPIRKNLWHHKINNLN
# T1 sequence (P22007 1-431): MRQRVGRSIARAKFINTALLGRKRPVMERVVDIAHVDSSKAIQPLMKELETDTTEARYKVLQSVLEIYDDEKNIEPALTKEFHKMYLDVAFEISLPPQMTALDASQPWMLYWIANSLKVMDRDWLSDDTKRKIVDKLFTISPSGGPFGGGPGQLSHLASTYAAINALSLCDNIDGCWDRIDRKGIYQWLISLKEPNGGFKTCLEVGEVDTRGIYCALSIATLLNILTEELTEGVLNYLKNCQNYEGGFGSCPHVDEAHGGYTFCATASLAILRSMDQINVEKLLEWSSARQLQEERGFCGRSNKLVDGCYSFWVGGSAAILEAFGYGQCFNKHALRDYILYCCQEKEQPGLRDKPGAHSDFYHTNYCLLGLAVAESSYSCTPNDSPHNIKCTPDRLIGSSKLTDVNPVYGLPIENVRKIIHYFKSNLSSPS
# [4] = mild basic conditions (pH=7.5), hydrolysed to dicarboxylate anion 2; ref 10a; cited from earlier work
molecule,measurement,setting,value
CCCCCCCCCCCCCC/C(C(=O)O)=C(\C)C(=O)O [compound 2],IC50,"recombinant human FTase; read-out: IC50 recombinant human FTase, dianionic form",55 nM
dansyl-Gly-Cys-Val-Leu-Ser (Dansyl-GCVLS),kcat,wild FTase,0.4 s⁻¹
"CCCCCCCCCCCCCC/C(C(=O)O)=C(\C)C(=O)O [compound 1, chaetomellic acid A]",Inhibition of Ras processing,[1],did not inhibit
same,Reduction of PBP1b activity,[2],modest potency
same,Mode of FTase inhibition towards the acceptor peptide Ras,recombinant human FTase; diacid anion of 1,noncompetitive
same,Mode of FTase inhibition with respect to farnesyl pyrophosphate (FPP),recombinant human FTase; diacid anion of 1,highly competitive
same,Production of superoxide anion and volume of cerebral necrotic tissue,Ha-Ras,significantly reducing
same,Inhibition of rubber biosynthesis in vitro,rubber transferase,able to inhibit
same,Effect on cell cycle progression,tobacco BY-2 cells,specific arrest in the cell cycle
same,Effect on acute ischemia-reperfusion injury (renal function and histology),Ras/ERK1/2 pathway,beneficial effect
same,Effect on membrane-bound Ha-Ras,[3],selectively inhibited
same,Effect on membrane-bound Ki-Ras,[3],did not alter
"CCCCSCCCCCCCCC/C(C(=O)[O-])=C(\C)C(=O)[O-].[Na+].[Na+] [compound 27, disodium salt of 2-(9-(butylthio)nonyl)-3-methylmaleic acid]",times more potent than ACA,yeast FTase,approximately 5
"CCCCCCCCCCCCCCC1=C(C)C(=O)OC1=O [compound 3, chaetomellic anhydride A]",Stability of the cyclic (anhydride) form,[4],unstable
dansyl-Gly-Cys-Val-Ile-Ala (Dansyl-GCVIA),kcat,wild FTase,> 0.2 s⁻¹
